Laboratory results as given in patent publication US20030100772A1, “Oxygen-containing heterocyclic compounds” (priority 2000, published 2003).

Columns and labels:
[1] = target: T1, recombinant human PDE IV enzyme (HSPDE4A4B) (Homo sapiens, UniProt P27815); assay: Inhibition test on recombinant human PDE IV enzyme; format: biochemical; conditions: [3H]cAMP 1 μmol/L substrate, read-out: enzyme inhibitory activity
T1 construct: made in house; host or cells: Sf9 insect cells
Protocol: Inhibition Test on Recombinant Human PDE IV Enzyme
Human phosphodiesterase cDNA (HSPDE4A4B) was isolated from HL-60 cells. The expected amino acid sequence is the same as that (HSPDE4A5) reported by G. Bolger et al. [Mol. Cell Biol. 13, p. 6558 (1993)]. This recombinant protein was expressed in Sf9 insect cells. The PDE activity was determined by the following two step process according to the method by R. L. Kincaid and V. C. Manganiello [Method. Enzymol., 159, pp. 457-470 (1988)]. Using [^3H]cAMP (final concentration: 1 μmol/L) as a substrate, the reaction was conducted in a standard mixture containing N,N-bis(2-hydroxyethyl)-2-aminoethanesulfonic acid (50 mmol/L, pH 7.2), MgCl2 (1 mmol/L) and soybean trypsin inhibitor (0.1 mg/mL). The reaction was started by addition of the enzyme, and the incubation was conducted at 30° C. for 10 to 30 minutes. The reaction was terminated with hydrochloric acid, and the formed 5′-AMP was completely decomposed with […]. After chromatography with DEAE-Sephadex A-25, the eluted [^3H]-adenosine was counted by a scintillation counter. The test compounds were added after dissolved in DMSO (concentration: 1.7%).

T1 sequence (P27815 whole entry): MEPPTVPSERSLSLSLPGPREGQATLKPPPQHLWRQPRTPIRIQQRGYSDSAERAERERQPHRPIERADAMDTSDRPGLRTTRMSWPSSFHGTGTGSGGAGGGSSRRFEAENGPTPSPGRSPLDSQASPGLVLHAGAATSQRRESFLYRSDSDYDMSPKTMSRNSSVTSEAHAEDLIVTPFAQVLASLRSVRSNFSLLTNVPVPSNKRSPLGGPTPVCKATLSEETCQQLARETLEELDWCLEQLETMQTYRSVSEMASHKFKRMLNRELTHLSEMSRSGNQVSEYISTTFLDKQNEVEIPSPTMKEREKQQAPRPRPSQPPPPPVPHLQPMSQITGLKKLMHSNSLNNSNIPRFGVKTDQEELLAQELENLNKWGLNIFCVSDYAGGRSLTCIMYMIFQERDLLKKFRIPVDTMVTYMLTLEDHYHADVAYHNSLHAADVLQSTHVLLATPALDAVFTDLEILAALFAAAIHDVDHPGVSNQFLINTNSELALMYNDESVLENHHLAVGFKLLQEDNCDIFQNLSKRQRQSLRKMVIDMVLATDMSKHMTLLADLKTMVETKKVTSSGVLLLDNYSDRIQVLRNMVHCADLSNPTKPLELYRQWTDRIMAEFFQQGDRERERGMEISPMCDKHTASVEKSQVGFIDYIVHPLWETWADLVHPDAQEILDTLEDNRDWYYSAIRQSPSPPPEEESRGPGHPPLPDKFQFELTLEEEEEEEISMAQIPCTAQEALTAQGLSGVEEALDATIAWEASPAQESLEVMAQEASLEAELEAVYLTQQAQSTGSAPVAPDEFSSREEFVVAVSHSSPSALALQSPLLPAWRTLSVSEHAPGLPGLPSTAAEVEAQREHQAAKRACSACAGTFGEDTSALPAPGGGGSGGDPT

inhibition at 1 µM ([1]; concentration of 1 μmol/L) [%] | inhibition at 10 µM ([1]; drug concentration of 10 μmol/L) [%] | melting point [°C] | Structure (SMILES)
≥ 99 | – | – | CCOC(=O)C=CC1(c2ccc(OC)c3c2OCCO3)CCC(=O)CC1 [Compound 13, Ethyl 3-[1-(8-methoxy-1,4-benzodioxan-5-yl)-4-oxocyclohexyl]acrylate]
– | ≥ 30 | 241 to 243 | COc1ccc(C2(C3CCCC3=O)CCC(C(=O)O)CC2)c2c1OCCO2 (centres unmarked) [Compound 8, 4-(Cyclopentanon-2-yl)-4-(8-methoxy-1,4-benzodioxan-5-yl)-cyclohexanecarboxylic Acid]
– | – | 222 to 223 | COc1ccc(C2(C3CCCCC3=O)CCC(C(=O)O)CC2)c2c1OCCO2 (single isomer, unassigned) [Compound 9b, 4-(Cyclohexanon-2-yl)-4-(8-methoxy-1,4-benzodioxan-5-yl)-cyclohexanecarboxylic Acid]
– | – | 243 to 244 | COc1ccc(C2(C3CCCCC3=O)CCC(C(=O)O)CC2)c2c1OCCO2 (single isomer, unassigned) [Compound 9a, 4-(Cyclohexanon-2-yl)-4-(8-methoxy-1,4-benzodioxan-5-yl)-cyclohexanecarboxylic Acid]
